Assay [1] addresses T1, phosphorylated ERBB2 (pERBB2) (Homo sapiens, UniProt P04626).
T1 construct: endogenous in cells; host or cells: BT-474
Put plainly: Detection of phosphorylated ERBB2 (pERBB2) by ELISA in BT-474 cells. Conditions: four hours incubation with compound, OD 450 nm. Format: cell-based. As for the experimental part:
BT-474 cells were seeded into a 96-well at 2.0*10^4 cells/100 μl/well.
Compounds were dissolved and serially diluted in DMSO. The compounds were then were added, mixed, and incubated for four hours at 37° C., 5% CO2. Compounds were added using four-fold dilutions at final concentrations ranging from 10 μM to 0.01 nM.
Following the four hour incubation with compounds, cell lysates were prepared. Plates were centrifuged for 5 min at 3000 RPM, and supernatant was removed from each well. Cells were washed 3 times by resuspension in 150 μl PBS, followed by centrifugation and removal of the supernatant, as above. […] Cells were incubated with lysis buffer for 1 hour at 4° C., and then stored at −80° C.
Enzyme-linked immunosorbent assays (ELISA) were performed to measure phosphorylated ERBB2 levels. […] The next day, plates were washed with PBS+0.05% Tween20 (PBST). 150 μl of 5% BSA blocking solution was added for 1 hour at room temperature, with shaking. Plates were washed with PBST. Cell lysates were thawed and 100 μl of lysate was added to the ELISA plate. The plates were incubated for 2 hours at room temperature, with shaking. […] Plates were incubated for 1 hour at room temperature, with shaking. Plates were then washed with PBST, and 100 μl TMB substrate solution (R&D Systems, cat #DY999) was added. Plate were incubated in the dark for 20 minutes at room temperature. 50 μl of Stop solution (R&D Systems, cat #DY994) (50 μl) was added to each well and mixed.
Optical density at 450 nm was read on an EnSpire plate reader (Perkin Elmer). The remaining kinase activity by calculated using the following formula: % Relative activity=100×(A450sample−A450LC)/(A450HC−A450LC). The low and high control values (“LC” and “HC”) were generated from lysate from wells without cells or with cells treated with 0.1% DMSO, respectively.

Assay [2] concerns the target T2, Ba/F3 ERBB2 A775_G776insYVMA (Homo sapiens, UniProt P04626, DUP772-775, cells depend on it).
T2 construct: Ba/F3 cell lines were engineered to express human ERBB2 or EGFR kinases, rendering the cells IL-3 independent
The experiment in a line: Cell viability assay (CellTiter Glo). In kind it is cell-based, mouse. Conditions: 72 hours; 300 cells per well, 384-well plates (Table B5); read-out: Cell Line: Ba/F3 ERBB2 A775 G776ins YVMA IC50. How it is done: Cells were treated with compounds, and cell viability was measured as a metric of kinase inhibition.
The Ba/F3 cell line is IL-3-dependent mouse cell line derived from the C3H mouse strain. Ba/F3 cell lines were engineered to express human ERBB2 or EGFR kinases, rendering the cells IL-3 independent. The lines were generated via retroviral transduction utilizing a Moloney murine leukemia virus (MMLV) promoter, and constructs are stably integrated into the cell genome.
Similarly, Ba/F3 cell lines engineered to express EGFR, ERBB2, or ERBB2 mutants were grown, harvested, counted and seeded at 3000 cells per well in 96-well plates for the data sets shown in Tables B3-B4, and seeded at 300 cells per well in 384-well plates for the data set shown in Table B5. A subset of wells contained media only (low control, “LC”).
Table B2 provides the growth media and number of cells seeded per well for the each cell line.
Compounds were dissolved in DMSO and serially diluted. Serially-diluted compound or a DMSO only control (high control, “HC”) was added to the plated cells in each well. […] The final proportion of DMSO never exceeded 0.1%.
Plates were placed in a 37° C., 5% CO2 incubator for 72 hours. Plates were then removed from the incubator and equilibrated for 15 minutes at room temperature. 40 IA of CellTiter Glo reagent (Promega) was added to measure the relative level of metabolically active cells by quantifying intracellular ATP concentrations. Plates were incubated for 30 minutes at room temperature, and luminescence was measured. Percent viability was normalized to a vehicle control only using the following formula: % viability=100×(LumSample−LumLC) (LumHC−LumLC). Graphical curves were fitted using a nonlinear regression model with a sigmoidal dose response.

Assay [3] has as its target T3, phosphorylated EGFR (pEGFR) (Homo sapiens, UniProt P00533).
T3 construct: endogenous in cells; host or cells: A431
Put plainly: Detection of phosphorylated EGFR (pEGFR) in EGF-stimulated A431 cells (AlphaLISA). In kind it is cell-based. As to conditions: A431 cells (10% FBS), 4 hours with compound, then EGF 30 ng/mL for 10 minutes. As for the experimental part: Enzyme-linked immunosorbent assays (ELISA) were performed to measure phosphorylated EGFR levels using A431 cells (10% FBS). A431 (1.0*10^4 cells/40 μl/well) cells were seeded in 384 well. Compounds were dissolved in DMSO, serially diluted in DMSO and then were added, mixed, and incubated for 4 hours at 37° C., 5% CO2. Following the 4-hours incubation, cells were stimulated for 10 minutes with EGF (Invitrogen, cat #PHG0311) at a final concentration of 30 ng/mL in the incubator. The media was aspirated and cells were lysed in 10 μL lysis buffer with protease and phosphatase inhibitors (PerkinElmer, cat #ALSU-PEGFR-A50K). The plates were placed on a shaker for 5 minutes and then incubated for 30 min at 4° C. for complete lysis. The lysate was transferred to an Optiplate (Perkin Elmer, cat #6007290).
Acceptor mix (PerkinElmer, cat #ALSU-PEGFR-A50K) was prepared just before use and 5 μL was dispensed to all the wells, followed by a 1.5-2 h incubation at room temperature in dark. The donor mix (PerkinElmer, cat #ALSU-PEGFR-A50K) was prepared under low light conditions prior to use and […] of donor mix was added to all the wells under subdued lighting or green filters. The plates were placed on a shaker for 5 min, sealed, and incubated overnight at room temperature in dark. Plates were read on the Envision (PerkinElmer) using standard AlphaLISA settings.
The percentage of inhibition on EGFR phosphorylation was calculated following equation: % Inhibition=100×(LumHC−LumSample)/(LumHC−LumLC). The low and high controls (LC/HC) are generated from lysate from wells with cells treated with DMSO or […] Staurosporine (BioAustralis, cat #BIA-S1086), […]. IC50 values were calculated by fitting the Curve using XLfit (v5.3.1.3), equation 201: Y=Bottom+(Top−Bottom)/(1+10^((LogIC50−X)*HillSlope)).

pIC50: −log10 of the molar value.

T2 sequence (P04626 with tags, fused parts or gaps DUP772-775): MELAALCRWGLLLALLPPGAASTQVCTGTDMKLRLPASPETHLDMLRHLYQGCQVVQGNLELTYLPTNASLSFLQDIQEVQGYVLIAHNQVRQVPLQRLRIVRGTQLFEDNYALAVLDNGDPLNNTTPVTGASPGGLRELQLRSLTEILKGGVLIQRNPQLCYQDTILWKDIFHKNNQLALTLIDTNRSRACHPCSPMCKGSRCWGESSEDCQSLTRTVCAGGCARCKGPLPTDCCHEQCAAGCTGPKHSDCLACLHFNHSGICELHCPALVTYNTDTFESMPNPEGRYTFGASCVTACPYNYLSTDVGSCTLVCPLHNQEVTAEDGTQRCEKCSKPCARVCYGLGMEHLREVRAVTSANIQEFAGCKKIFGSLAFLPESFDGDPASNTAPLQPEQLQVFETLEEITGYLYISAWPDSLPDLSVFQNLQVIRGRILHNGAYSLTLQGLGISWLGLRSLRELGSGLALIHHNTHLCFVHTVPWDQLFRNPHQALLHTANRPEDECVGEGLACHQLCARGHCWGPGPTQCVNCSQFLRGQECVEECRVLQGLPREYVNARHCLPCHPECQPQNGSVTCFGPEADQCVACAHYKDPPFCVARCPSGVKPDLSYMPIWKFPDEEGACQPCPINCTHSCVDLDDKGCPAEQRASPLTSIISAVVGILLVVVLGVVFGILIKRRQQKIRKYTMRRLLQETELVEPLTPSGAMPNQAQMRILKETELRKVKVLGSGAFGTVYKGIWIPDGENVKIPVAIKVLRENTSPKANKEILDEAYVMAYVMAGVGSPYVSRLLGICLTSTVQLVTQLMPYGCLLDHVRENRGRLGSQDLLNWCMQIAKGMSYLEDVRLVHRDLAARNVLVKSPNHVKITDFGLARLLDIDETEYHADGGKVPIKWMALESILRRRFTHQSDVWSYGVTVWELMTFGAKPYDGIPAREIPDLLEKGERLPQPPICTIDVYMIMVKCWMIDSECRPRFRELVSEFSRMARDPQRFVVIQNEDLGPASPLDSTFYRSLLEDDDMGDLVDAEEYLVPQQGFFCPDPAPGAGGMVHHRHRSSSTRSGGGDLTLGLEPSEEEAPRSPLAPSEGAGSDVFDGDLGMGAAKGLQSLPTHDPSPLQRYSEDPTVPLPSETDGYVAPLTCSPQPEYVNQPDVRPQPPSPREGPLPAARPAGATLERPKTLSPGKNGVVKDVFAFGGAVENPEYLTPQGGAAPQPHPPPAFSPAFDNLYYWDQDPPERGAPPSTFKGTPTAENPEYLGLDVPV
T3 sequence (P00533 25-1210): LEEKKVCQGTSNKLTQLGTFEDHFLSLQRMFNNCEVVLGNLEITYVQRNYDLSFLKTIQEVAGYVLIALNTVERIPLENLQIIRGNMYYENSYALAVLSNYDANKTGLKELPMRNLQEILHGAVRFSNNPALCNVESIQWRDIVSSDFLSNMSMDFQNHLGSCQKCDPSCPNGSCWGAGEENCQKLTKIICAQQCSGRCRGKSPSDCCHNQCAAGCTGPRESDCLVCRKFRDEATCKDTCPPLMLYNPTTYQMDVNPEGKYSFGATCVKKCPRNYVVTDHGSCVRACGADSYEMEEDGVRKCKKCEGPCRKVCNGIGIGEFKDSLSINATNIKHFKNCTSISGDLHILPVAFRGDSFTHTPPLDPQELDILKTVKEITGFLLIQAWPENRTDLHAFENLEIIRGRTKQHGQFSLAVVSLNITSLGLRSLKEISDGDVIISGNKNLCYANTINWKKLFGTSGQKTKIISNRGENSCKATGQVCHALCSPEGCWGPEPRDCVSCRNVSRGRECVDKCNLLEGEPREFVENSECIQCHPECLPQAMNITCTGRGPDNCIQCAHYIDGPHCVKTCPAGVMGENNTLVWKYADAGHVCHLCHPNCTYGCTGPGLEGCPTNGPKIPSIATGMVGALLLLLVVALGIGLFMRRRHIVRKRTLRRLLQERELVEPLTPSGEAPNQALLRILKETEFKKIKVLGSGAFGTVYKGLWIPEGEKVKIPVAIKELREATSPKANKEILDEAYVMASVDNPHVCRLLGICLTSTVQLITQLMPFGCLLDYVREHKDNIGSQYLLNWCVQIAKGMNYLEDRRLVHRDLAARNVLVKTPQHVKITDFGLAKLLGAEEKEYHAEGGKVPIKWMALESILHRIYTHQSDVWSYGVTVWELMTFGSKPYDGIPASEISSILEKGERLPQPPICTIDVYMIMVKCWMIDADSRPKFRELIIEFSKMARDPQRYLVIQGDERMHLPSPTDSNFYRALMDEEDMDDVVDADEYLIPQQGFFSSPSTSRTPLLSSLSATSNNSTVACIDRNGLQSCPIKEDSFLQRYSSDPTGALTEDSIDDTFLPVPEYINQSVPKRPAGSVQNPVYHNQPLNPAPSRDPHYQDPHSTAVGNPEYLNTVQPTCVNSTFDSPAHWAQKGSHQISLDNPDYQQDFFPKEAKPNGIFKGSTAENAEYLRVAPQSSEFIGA
T1 sequence (P04626 23-1255): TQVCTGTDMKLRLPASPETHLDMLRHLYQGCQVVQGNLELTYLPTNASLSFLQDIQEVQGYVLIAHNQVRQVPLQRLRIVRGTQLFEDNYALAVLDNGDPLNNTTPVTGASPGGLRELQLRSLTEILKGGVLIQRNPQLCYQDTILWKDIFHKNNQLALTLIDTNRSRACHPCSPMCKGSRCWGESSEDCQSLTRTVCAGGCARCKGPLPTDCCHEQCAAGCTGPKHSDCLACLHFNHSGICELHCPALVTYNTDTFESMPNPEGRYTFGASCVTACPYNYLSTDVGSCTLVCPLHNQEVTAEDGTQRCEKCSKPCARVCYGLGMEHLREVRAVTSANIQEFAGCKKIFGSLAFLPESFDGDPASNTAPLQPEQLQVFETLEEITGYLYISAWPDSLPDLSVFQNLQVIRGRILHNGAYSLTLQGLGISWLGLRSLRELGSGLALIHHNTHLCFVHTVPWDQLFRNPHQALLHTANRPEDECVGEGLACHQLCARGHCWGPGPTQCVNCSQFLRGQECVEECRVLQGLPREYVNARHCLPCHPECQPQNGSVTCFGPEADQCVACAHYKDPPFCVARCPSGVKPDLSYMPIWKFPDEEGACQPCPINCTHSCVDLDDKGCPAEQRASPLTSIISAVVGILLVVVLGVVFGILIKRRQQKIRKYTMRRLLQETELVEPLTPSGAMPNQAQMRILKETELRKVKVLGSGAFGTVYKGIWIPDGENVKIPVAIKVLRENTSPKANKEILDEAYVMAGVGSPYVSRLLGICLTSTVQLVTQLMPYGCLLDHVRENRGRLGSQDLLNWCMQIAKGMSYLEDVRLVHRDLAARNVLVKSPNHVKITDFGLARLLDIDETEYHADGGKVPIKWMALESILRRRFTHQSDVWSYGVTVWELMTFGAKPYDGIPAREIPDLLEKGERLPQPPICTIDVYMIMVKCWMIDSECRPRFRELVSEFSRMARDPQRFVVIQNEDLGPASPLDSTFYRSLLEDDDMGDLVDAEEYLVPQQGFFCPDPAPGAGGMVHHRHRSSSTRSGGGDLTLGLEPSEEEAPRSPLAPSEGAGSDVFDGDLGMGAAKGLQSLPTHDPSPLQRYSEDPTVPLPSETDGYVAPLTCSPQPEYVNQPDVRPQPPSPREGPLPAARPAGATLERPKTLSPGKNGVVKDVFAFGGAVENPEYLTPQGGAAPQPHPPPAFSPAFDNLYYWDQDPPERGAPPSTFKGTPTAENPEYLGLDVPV

Turning to `CC#CC(=O)Nc1cc2c(Nc3ccc(Oc4ccn5ncnc5c4)c(Cl)c3F)ncnc2cc1OCCN(C)C` [Compound 193, N-(4-((4-([1,2,4]triazolo[1,5-a]pyridin-7-yloxy)-3-chloro-2-fluorophenyl)amino)-7-(2-(dimethylamino)ethoxy)quinazolin-6-yl)but-2-ynamide], the pIC50 in assay [1] is 7.86; in assay [3], 6.18. The GI50 in assay [2] was determined as 9.32 nM.
For the molecule `CC#CC(=O)Nc1cc2c(Nc3ccc(Oc4ccn5ncnc5c4)c(C)c3)ncnc2cc1OCCNC` [Compound 194, N-{4-[(3-methyl-4-{[1,2,4]triazolo[1,5-a]pyridin-7-yloxy}phenyl)amino]-7-[2-(methylamino)ethoxy]quinazolin-6-yl}but-2-ynamide], the pIC50 was 7.74 in assay [1] and 6.09 in assay [3]. Also, in assay [2], the GI50 stood at 32 nM.
As to `CC#CC(=O)Nc1cc2c(Nc3ccc(Oc4ccn5ncnc5c4)c(C4CC4)c3)ncnc2cc1OCCN(C)C` [Compound 195, N-{4-[(3-cyclopropyl-4-{[1,2,4]triazolo[1,5-a]pyridin-7-yloxy}phenyl)amino]-7-[2-(dimethylamino)ethoxy]quinazolin-6-yl}but-2-ynamide], the pIC50 is 6.98 in assay [1] and 5.15 in assay [3]. Further, the GI50 in assay [2] turned out to be 86.8 nM.
On to `CC#CC(=O)Nc1cc2c(Nc3ccc(Cc4ccn5ncnc5c4)c(C)c3)ncnc2cc1OCCN(C)C` [Compound 196, N-(4-((4-([1,2,4]triazolo[1,5-a]pyridin-7-ylmethyl)-3-methylphenyl)amino)-7-(2-(dimethylamino)ethoxy)quinazolin-6-yl)but-2-ynamide], for which the figures for the pIC50 in assay [1] and in assay [3] were 8.08 and 6.03, respectively. For the same molecule, the GI50 in assay [2] turned out to be 9.96 nM.
Regarding `CC#CC(=O)Nc1cc2c(Nc3ccc(Oc4ccn5ncnc5c4)c(F)c3)ncnc2cc1OCCN(C)C` [Compound 198, N-(4-((4-([1,2,4]triazolo[1,5-a]pyridin-7-yloxy)-3-fluorophenyl)amino)-7-(2-(dimethylamino)ethoxy)quinazolin-6-yl)but-2-ynamide], the pIC50 was 8.21 in assay [1] and 6.29 in assay [3]. The GI50 in assay [2] came to 11.5 nM.
On to `CC#CC(=O)Nc1cc2c(Nc3ccc(Oc4ccn5ncnc5c4)c(C)c3)ncnc2cn1` [Compound 199, N-(4-((4-([1,2,4]triazolo[1,5-a]pyridin-7-yloxy)-3-methylphenyl)amino)pyrido[3,4-d]pyrimidin-6-yl)but-2-ynamide], for which the negative-log IC50 (pIC50) in assay [1] is 8.33; in assay [3], 7.24. The GI50 in assay [2] is 2.51 nM.
Taken in the same sequence, the figures for `CC#CC(=O)Nc1cc2c(Nc3ccc(Oc4ccn5ncnc5c4)c(Cl)c3)ncnc2cc1OCCN(C)C` [Compound 200, N-(4-((4-([1,2,4]triazolo[1,5-a]pyridin-7-yloxy)-3-chlorophenyl)amino)-7-(2-(dimethylamino)ethoxy)quinazolin-6-yl)but-2-ynamide] were 8.43, 7.16 and 2.63 nM.
With `CC#CC(=O)Nc1cc2c(Nc3ccc(Oc4cnn(C)c(=O)c4)c(C)c3)ncnc2cc1OCCN(C)C` [Compound 201, N-{7-[2-(dimethylamino)ethoxy]-4-({3-methyl-4-[(1-methyl-6-oxopyridazin-4-yl)oxy]phenyl}amino)quinazolin-6-yl}but-2-ynamide], the figures for the pIC50 in assay [1] and in assay [3] were 6.82 and 5.71, respectively. Further, in assay [2], the GI50 is 346 nM.
Taken in the same sequence, the figures for `CC#CC(=O)Nc1cc2c(Nc3ccc(Cc4ccn5ncnc5c4)c(F)c3)ncnc2cc1OCCN(C)C` [Compound 202, N-{7-[2-(dimethylamino)ethoxy]-4-[(3-fluoro-4-{[1,2,4]triazolo[1,5-a]pyridin-7-ylmethyl}phenyl)amino]quinazolin-6-yl}but-2-ynamide] were 7.66, 6.27 and 49.4 nM.
Taken in the same sequence, the figures for `CC#CC(=O)Nc1cc2c(Nc3ccc(Oc4ccn5ncnc5c4)c(C)c3)ncnc2cc1OCCN1CCN(C)CC1` [Compound 203, N-{4-[(3-methyl-4-{[1,2,4]triazolo[1,5-a]pyridin-7-yloxy}phenyl)amino]-7-[2-(4-methylpiperazin-1-yl)ethoxy]quinazolin-6-yl}but-2-ynamide] were 8.22, 7.34 and 5.11 nM.
Taken in the same sequence, the figures for `CCOc1cc2ncnc(Nc3ccc(Oc4ccn5ncnc5c4)c(C)c3)c2cc1NC(=O)C#CCN1CCN(C)CC1` [Compound 208, N-{7-ethoxy-4-[(3-methyl-4-{[1,2,4]triazolo[1,5-a]pyridin-7-yloxy}phenyl)amino]quinazolin-6-yl}-4-(4-methylpiperazin-1-yl)but-2-ynamide triformate] were 5.93, 5.65 and over 500 nM.
For `CC#CC(=O)Nc1c(OCCCN(C)C)cc2ncnc(Nc3ccc(Cc4ccn5ncnc5c4)c(C)c3)c2c1F` [Compound 209, N-{7-[3-(dimethylamino)propoxy]-5-fluoro-4-[(3-methyl-4-{[1,2,4]triazolo[1,5-a]pyridin-7-ylmethyl}phenyl)amino]quinazolin-6-yl}but-2-ynamide], the pIC50 in assay [1] is 5.90; in assay [3] it was under 5.00. In addition, in assay [2], the GI50 is over 500 nM.
Taken in the same sequence, the figures for `CC#CC(=O)Nc1ccc2ncnc(Nc3cc(C)c(Oc4ccn5ncnc5c4)cc3F)c2c1F` [Compound 210, N-{5-fluoro-4-[(2-fluoro-5-methyl-4-{[1,2,4]triazolo[1,5-a]pyridin-7-yloxy}phenyl)amino]quinazolin-6-yl}but-2-ynamide] were 7.92, 5.73 and 10.8 nM.
`CC#CC(=O)Nc1ccc2ncnc(Nc3ccc(Oc4ccc5nccnc5c4)c(C)c3)c2c1` [Compound 211, N-(4-{[3-methyl-4-(quinoxalin-6-yloxy)phenyl]amino}quinazolin-6-yl)but-2-ynamide]: the pIC50 in assay [1] was 7.44; in assay [3], 7.00. Moreover, the GI50 in assay [2] is 3.2 nM.

(Values after patent publication US20230265098A1, “ALKYNE QUINAZOLINE DERIVATIVES AS INHIBITORS OF ERBB2” (EnLiven Therapeutics, Inc., priority 2020, published 2023).)
